# Data from patent US12533330B2, “(2S)-2-aminopentanethioic s-acid for use as medicament and in therapy of amyotrophic lateral sclerosis” (MASSEY VENTURES LIMITED, priority 2020, dated 2026).
# Experiments:
# Format in all cases: in vivo
# [1] = system: FUS[1-359]-tg mouse line (FUS-tg); test: Onset of paralysis in FUS-tg mouse ALS model; conditions: for percentage of FUS-tg mice with signs of paralysis on day 95: FUS-tg male mice, six weeks via drinking water from age nine weeks, (I) and (IX) 50 mg/kg/day, Riluzole 8 mg/kg
# Text: (§1) A transgenic FUS[1-359]-tg mouse line (FUS-tg) was used to test the efficacy of the substance of formula (I) in the therapy of amyotrophic lateral sclerosis according to the guidelines set for ALS preclinical studies. Ludolph A C et al. Guidelines for preclinical animal research in ALS/MND: A consensus meeting. Amyotroph Lateral Scler. 2010; 11:38-45. Mutations in DNA/RNA-binding factor (fused-in-sarcoma) FUS cause ALS in humans. The FUS-tg mouse model recapitulates core hallmarks of human ALS in the spinal cord, including neuroinflammation and neurodegeneration, ensuing muscle atrophy and paralysis. […] J Biol Chem. 2013; 288:25266-25274. Lutz C. Mouse models of ALS: Past, present and future. […] CNS Neurosci Ther. 2020; 26(5):504-517.
# (§2) The substance (I) and the substance (IX) represent (2S)- and (2R)-enantiomers of 2-aminopentanethioic S-acid, respectively. The (2R)-enantiomer (IX) was included to the study to clarify importance of (S)- and (R)-configurations of 2-aminopentanethioic S-acid during the therapy of ALS.
# The onset of paralysis, a core ALS symptom, was recorded for each FUS-tg mouse.
# [2] = system: FUS[1-359]-tg mouse line (FUS-tg); test: Malondialdehyde (MDA) concentration in spinal cord of FUS-tg mice; conditions: 50 mg/kg/day via drinking water, one-way ANOVA and Tukey's test
# Text: A transgenic FUS[1-359]-tg mouse line (FUS-tg) was used to test the efficacy of the substance of formula (I) in the therapy of amyotrophic lateral sclerosis according to the guidelines set for ALS preclinical studies. Ludolph A C et al. Guidelines for preclinical animal research in ALS/MND: A consensus meeting. Amyotroph Lateral Scler. 2010; 11:38-45. Mutations in DNA/RNA-binding factor (fused-in-sarcoma) FUS cause ALS in humans. The FUS-tg mouse model recapitulates core hallmarks of human ALS in the spinal cord, including neuroinflammation and neurodegeneration, ensuing muscle atrophy and paralysis. Shelkovnikova T A et al. Fused in sarcoma (FUS) protein lacking nuclear localization signal (NLS) and major RNA binding motifs triggers proteinopathy and severe motor phenotype in transgenic mice. J Biol Chem. 2013; 288:25266-25274. Lutz C. Mouse models of ALS: Past, present and future. Brain Res. 2018; 1693:1-10. de Munter J et al. Neuro-Cells therapy improves motor outcomes and suppresses inflammation during experimental syndrome of amyotrophic lateral sclerosis in mice. CNS Neurosci Ther. 2020; 26(5):504-517. […]
# The concentration of malondialdehyde (MDA), a marker of oxidative stress, was measured in the spinal cord of FUS-tg mice treated with vehicle or substance of formula (I) in comparison with wild type controls. […]
# [3] = system: FUS[1-359]-tg mouse line (FUS-tg); test: Rotarod test in FUS-tg mouse ALS model; conditions: week 5, via drinking water, one-way ANOVA and Tukey's test
# Text: as §1, §2
SMILES,percentage of FUS-tg mice with signs of paralysis on day 95 [1] [%],"significance of percentage of mice with signs of paralysis on the 95th day vs. vehicle ([1]; FUS-tg mice, day 95, Fisher test vs. vehicle)",MDA levels in the spinal cord vs. vehicle-treated FUS-tg mice [2],latency to fall in the rotarod test vs. vehicle-treated FUS-tg mice [3]
"CCC[C@H](N)C(=O)S [substance (I), (2S)-2-aminopentanethioic S-acid]",16,significantly lower,significant reduction of the MDA levels,significantly longer latency to fall
"CCC[C@@H](N)C(=O)S [substance (IX), (2R)-2-aminopentanethioic S-acid, reference compound]",43,,,no significant difference
